From patent publication US5128398A, “Phenolic compound and its use as stabilizer for butadiene polymer” (Sumitomo Chemical Company, Limited, priority 1987, dated 1992)

Legend:
[1] = U.S. Pat. No. 4,525,514; cited from earlier work
[2] = Solubility in hydrocarbon solvents at 20° C.; assay type: physicochemical
Description: Solubility in hydrocarbon solvents was examined for the compounds II-1 and II-2 of the present invention and for the compounds AO-1 and AO-2 which are structurally similar to the compounds of the present invention. The hydrocarbon solvents used were n-hexane and cyclohexane. (g/100 g solvent)

SMILES | effect as a stabilizer for butadiene polymers (in words) [1] | Solubility in Cyclohexane [2] [g/100 g solvent] | Solubility in n-Hexane [2] [g/100 g solvent]
C=CC(=O)Oc1c(Cc2cc(C)cc(C(C)(C)C)c2O)cc(C)cc1C(C)(C)C [AO-1, 2-t-Butyl-6-(3-t-butyl-2-hydroxy-5-methylbenzyl)-4-methylphenyl acrylate] | effective as a stabilizer for butadiene polymers | 4.0 | 1.5
C=CC(=O)Oc1c(C(C)c2cc(C(C)(C)C)cc(C(C)(C)C)c2O)cc(C(C)(C)C)cc1C(C)(C)C (stereo not drawn) [AO-2, 2,4-Di-t-butyl-6-[1-(3,5-di-t-butyl-2-hydroxyphenyl)ethyl]phenyl acrylate] | – | 2.4 | 1.1
C=CC(=O)Oc1c(C(C)c2cc(C(C)(C)CC)cc(C(C)(C)CC)c2O)cc(C(C)(C)CC)cc1C(C)(C)CC (stereo not drawn) [II-1, 2,4-di-t-amyl-6-[1-(3,5-di-t-amyl-2-hydroxyphenyl)ethyl]phenyl acrylate] | – | 89 | 55
C=C(C)C(=O)Oc1c(C(C)c2cc(C(C)(C)CC)cc(C(C)(C)CC)c2O)cc(C(C)(C)CC)cc1C(C)(C)CC (stereo not drawn) [II-2, 2,4-di-t-amyl-6-[1--(3,5-di-t-amyl-2-hydroxyphenyl)ethyl]phenyl methacrylate] | – | 108 | 65
